Assay [1] deals with Staphylococcus aureus. The experiment in a line: Inhibition of biofilm formation of Staphylococcus aureus ATCC25923 at 0.5 ug/ml incubated for 20 hrs by crystal violet staining based analysis relative to control. Format: functional.
Assay [2] concerns Staphylococcus aureus. The experiment in a line: Bactericidal activity against Staphylococcus aureus ATCC25923 measured for 24 hrs by time-kill assay. Particulars: dose 0.125-0.5 µg/ml. Format: functional, organism-based.
In assay [3] the test system is Staphylococcus aureus. The assay can be described thus: Antibacterial activity against Staphylococcus aureus clinical isolate incubated for 18 to 24 hrs. Particulars: time 18-24 hrs. Format: functional.
Assay [4] relates to Staphylococcus aureus. The assay can be described thus: Disruption of inner membrane in Staphylococcus aureus ATCC25923 by PI staining based analysis. Format: functional, organism-based. Particulars: time 12.0 min, TDE = time-dependent effect.
Assay [5] concerns Staphylococcus aureus. The experiment in a line: Effect on proton gradient of cytoplasmic membrane in Staphylococcus aureus ATCC25923 at 1 ug/ml measured after 20 mins by diSC35 dye based analysis. Particulars: Cytoplasm membrane, dose 1.0 µg/ml. Format: functional, organism-based.
The subject of the next assay is Enterococcus faecium. The assay can be described thus: Antibacterial activity against vancomycin-susceptible Enterococcus faecium ATCC19434 assessed as bacterial growth inhibition incubated for 20 hrs by CLSI based broth microdilution method. Format: functional. In general terms: Broth dilution looks for growth in wells or tubes with falling amounts of substance.

In assay [6] the test system is Staphylococcus aureus. The assay can be described thus: Inhibition of biofilm formation of Staphylococcus aureus ATCC25923 incubated for 20 hrs by crystal violet staining based analysis. Format: functional, organism-based.
Assay [7] has as its target T1, Cell division protein FtsZ (Bacillus subtilis) (UniProt A5Z1V5).
T1 sequence (whole entry): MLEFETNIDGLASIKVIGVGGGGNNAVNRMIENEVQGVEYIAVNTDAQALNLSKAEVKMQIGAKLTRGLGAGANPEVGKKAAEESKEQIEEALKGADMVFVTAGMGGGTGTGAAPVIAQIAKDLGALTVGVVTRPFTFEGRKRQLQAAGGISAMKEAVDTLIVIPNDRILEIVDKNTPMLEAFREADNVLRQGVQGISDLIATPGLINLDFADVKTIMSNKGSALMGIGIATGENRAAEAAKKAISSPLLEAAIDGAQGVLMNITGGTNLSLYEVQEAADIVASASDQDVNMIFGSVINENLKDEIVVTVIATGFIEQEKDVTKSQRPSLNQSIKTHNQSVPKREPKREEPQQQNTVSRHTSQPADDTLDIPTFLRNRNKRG
The experiment in a line: Induction of FtsZ polymerization in Bacillus subtilis assessed as bundling of FtsZ protofilaments at 10 ug/ml preincubated for 15 mins followed by GTP addition measured after 10 mins by TEM analysis. Particulars: dose 10.0 µg/ml, time 25.0 min.

Assay [8] deals with Staphylococcus aureus. The experiment in a line: Selectivity ratio of MBC for Staphylococcus aureus clinical isolate to MIC for Staphylococcus aureus clinical isolate. Format: functional.
The next assay deals with Escherichia coli. The assay can be described thus: Antibacterial activity against wild-type Escherichia coli BW25113 assessed as bacterial growth inhibition incubated for 20 hrs by CLSI based broth microdilution method. Format: functional.
Assay [9] deals with Staphylococcus aureus. The assay can be described thus: Induction of membrane potential depolarization in Staphylococcus aureus ATCC25923 measured after 20 mins by diSC35 dye based spectroscopy. Format: functional, organism-based.
For assay [10], the system named is Staphylococcus aureus. The assay can be described thus: Selectivity ratio of MBC for erythromycin-susceptible Staphylococcus aureus ATCC25923 to MIC for erythromycin-susceptible Staphylococcus aureus ATCC25923. Format: functional.
Assay [11] concerns Bacillus subtilis. The assay can be described thus: Induction of morphological change in Bacillus subtilis ATCC9372 assessed as increase in cell length at 0.5 times MIC by phase contrast microscopy. Format: functional, organism-based.
For assay [12], the system named is Staphylococcus aureus. The experiment in a line: Disruption of inner membrane in Staphylococcus aureus ATCC25923 measured after 12 mins by PI staining based analysis. Format: functional, organism-based.
The subject of assay [13] is Bacillus subtilis. The assay can be described thus: Antibacterial activity against penicillin-susceptible Bacillus subtilis ATCC9372 incubated for 18 to 24 hrs. Particulars: time 18-24 hrs. Format: functional.
For another assay, the system named is Acinetobacter baumannii. The assay can be described thus: Antibacterial activity against Acinetobacter baumannii ATCC19606 assessed as bacterial growth inhibition incubated for 20 hrs by CLSI based broth microdilution method. Format: functional.

The values below come from ChEMBL document CHEMBL5537115, “New broad-spectrum and potent antibacterial agents with dual-targeting mechanism: Promoting FtsZ polymerization and disrupting bacterial membranes” (Eur J Med Chem, 2024).

The source made the active and inactive calls.

A word on the inhibition: it is how much of the control response was suppressed. As a reminder, the MBC is the smallest concentration meeting the test's criterion for killing. Read a low MBC as greater bactericidal potency. For orientation: MIC means the least concentration at which growth counts as inhibited. In the case of `C[n+]1cc(-c2ccccc2)c(/C=C/c2ccc(C(C)(C)C)cc2)cc1-c1ccc(C(C)(C)C)cc1.[I-]`, in the assay on Staphylococcus aureus [1], the inhibition at 0.5 µg/mL was 6.06%. Moreover, the Activity entry was “Dose-Dependent Effect” in the assay with Staphylococcus aureus [2], “Tde” in the assay with Staphylococcus aureus [4], “Dose-Dependent Effect” in the assay on Staphylococcus aureus [9] and “Dose-Dependent Effect” with Staphylococcus aureus [12]. Also, the figures for the MBC in the assay with Staphylococcus aureus [3] and against Bacillus subtilis [13] were 0.125 µg/mL and 0.25 µg/mL, respectively. For the same compound, the outcome (in the assay with Staphylococcus aureus [5]; in assay [7]; in the assay on Bacillus subtilis [11]) was Active. For the same compound, the MIC amounted to 0.125 µg/mL with Enterococcus faecium, 2 µg/mL with Escherichia coli and 0.5 µg/mL in the assay on Acinetobacter baumannii. For the same compound, the inhibition entry in the assay on Staphylococcus aureus [6] was “Dose-Dependent Effect”. The Ratio in the assay with Staphylococcus aureus [8] was 2; in the assay on Staphylococcus aureus [10] it was 4.
